Results from patent US20210147842A1, “METHODS AND COMPOSITIONS FOR INHIBITING NECROPTOSIS IN NEUROVASCULAR AND/OR NEURODEGENERATIVE DISEASES OR DISORDERS” (President and Fellows of Harvard College, priority 2019, published 2021).
Peptide text beside a SMILES is read from it. * marks the point of attachment. Cbz = O=C(OCc1ccccc1)*

Key:
Type in all cases: cell-based, mouse
A20 = A20 protein level and degradation in bEnd.3 cells (western blot, cycloheximide chase); details: for A20 protein levels in Nat1-KD cells: Nat1-KD bEnd.3 cells, chloroquine 10 uM, E64d 5 ug/ml, sodium acetate over 24 h
Description: (§1) Nat1-KD in bEnd.3 cells were conducted by lentivirus transfection with Nat1 shRNA. Ctrl group was transfected with lentivirus expressing scrambled shRNA. The efficiency of Nat-1 KD was confirmed by western blotting (WB). TNFα(100 ng/ml) was applied in Ctrl or Nat-KD cells for 24 h with or without Ripk1 inhibitor, Nec1s (10 uM). Cell death was quantified with SYTOX green staining. […] Using Tandem Mass Tag (TMT) isobaric labeling mass spectrometry (MS), we identified 7707 proteins in Nat1-KD and Ctrl bEND.3 cells. […] Nat1-KD or Ctrl bEnd.3 cells were treated with Flag-TNFα (50 ng/ml) as the indicated time course. Ripk1 activation was examined by the blotting of p-S166 Ripk1 for cell lysates.
Panels b and c show bEnd.3 cells treated with cycloheximide (CHX, 250 ug/ml) to investigate the degradation kinetics of A20. […] Panels e and f show Chloroquine (CQ, 10 uM) and E64d (5 ug/ml) applied for inhibiting lysosomal protein degradation.
(§2) Since A20 is an important suppressor of RIPK1 activation, RIPK1 activation and Complex I assembly were next assessed in Nat1-KD or Ctrl bEnd.3 cells treated with TNFα.
To understand the mechanism by which A20 is decreased in Nat1-KD cells, it was first assessed whether this alteration was occurring at the protein or mRNA level. […] Nat1-KD and Ctrl bEnd.3 cells were treated with cycloheximide to investigate the kinetics of A20 degradation.

Nat1 mRNA = Nat1 mRNA expression in bEnd.3 cells; details: for insulin-induced Nat1 mRNA up-regulation: applied half an hour prior to insulin, MK-2206 5 uM, rapamycin 250 nM, oligomeric Aβ1-42 100 nM
From the text: FIG. 7: N-acetyltransferase 1 (Nat1) expression decreases in the brain ECs of AD. […] Fluorescence activated cell sorting (FACS) was used to isolate ECs (CD31^high and CD45^low) from single cell suspensions of brain tissues. The differentially expressed genes between APP/PS1 and WT groups were compared using edgeR and 116 genes were identified. […] Panels c and d show the expression of Nat1 protein (mouse)/Nat2 protein (human) in brain microvessels decreases during AD pathogenesis. Microvessels from mouse or human brains were isolated as described in Munikoti, et al. Journal of neuroscience methods 207, 80-85 (2012) and Boulay et al. Journal of visualized experiments: JoVE, e53208 (2015). […] Different concentrations of insulin were applied into the culture medium for 18 h. […] MK-2206(5 uM, Akt inhibitor), Repamycin (250 nM, mTOR inhibitor) or oligomeric Aβ1-42 (100 nM) was applied to the culture medium of bEnd.3 cells half an hour prior to the treatment of insulin.
To understand the mechanisms that mediate cerebral EC death and dysfunction in the pathogenesis of AD, fluorescence-activated cell sorting (FACS) was used to isolate ECs from the cerebrum of wild-type (WT) and APPswePSEN1dE9 (APP/PS1) mice (5-6 months of age). RNA sequencing (RNAseq) was used to profile gene expression between these groups, and differential gene expression was analyzed using edgeR (as described in Robinson, M. D., et al. Bioinformatics 26, 139-140 (2010)) (FIG. 7A). […] The decrease in Nat1 mRNA expression in cerebral ECs during AD pathogenesis was further confirmed by quantitative PCR (qPCR) (FIG. 7B). […] To validate the relevance of this finding in human AD pathogenesis, protein levels of NAT2 (the human homolog of mouse NAT1) in microvessels isolated from the brains of AD patients were assessed and compared to age-matched controls. […] To determine whether Nat1 expression might also be insulin-sensitive in immortalized mouse cerebral ECs (bEnd.3 cells), it was assessed whether increased concentrations of insulin could upregulate Nat1 (FIG. 7E).

bEnd.3 cells = assay: TNFα-induced cell death in bEnd.3 cells (SYTOX green); details: Nat1-KD bEnd.3 cells, TNFα 100 ng/ml; Nec1s 10 uM, 24 h; sodium acetate in culture medium
Description: Nat1-KD in bEnd.3 cells were conducted by lentivirus transfection with Nat1 shRNA. Ctrl group was transfected with lentivirus expressing scrambled shRNA. The efficiency of Nat-1 KD was confirmed by western blotting (WB). […] Cell death was quantified with SYTOX green staining. […] Ripk1 activation was examined by the blotting of p-S166 Ripk1 for cell lysates.
Mitochondria was stained with MitoTracker and imaged in live cells. […] For lysine acetylation, we first of all adjusted the protein concentrations to equalize A20 input in cell lysates of ctrl and Nat1-KD groups. Anti-acetylated lysine antibody was used for IP and anti-A20 antibody was used for WB.

[1] = tested on: acetyl coenzyme A (acetyl-CoA); assay: Acetyl-CoA concentration in bEnd.3 cells; details: Nat1-KD bEnd.3 cells, sodium acetate over 24 h
Description: FIG. 9A-H: Decreased acetylation of A20 promotes the susceptibility of Nat-1 KD cells to TNFα induced cell death. […] Mitochondria was stained with MitoTracker and imaged in live cells. The scale bar represents 20 and 5 um, respectively. […] For N-terminal acetylation, subtiligase reaction as described in Yi et al. Cell 146, 607-620 (2011) was used. Biotin was added into the free N-terminal residue. […] For lysine acetylation, we first of all adjusted the protein concentrations to equalize A20 input in cell lysates of ctrl and Nat1-KD groups. Anti-acetylated lysine antibody was used for IP and anti-A20 antibody was used for WB. […] Nat1-KD bEnd.3 cells were treated with flag-TNFα (100 ng/ml) as the indicated time course. […]
Analysis of Nat1 knockout mice previously reported increased mitochondrial damage and fragmentation (Camporez, J. P. et al. Proceedings of the National Academy of Sciences of the United States of America 114, E11285-E11292 (2017)). […] Since Nat1 deficiency affects metabolism which may affect the cellular levels of acetyl-CoA, the concentration of total acetyl-CoA in Nat1-KD cells was determined. […] Further, supplementation with sodium acetate is also able to rescue the hyperactivation of RIPK1 in Nat1-KD cells in response to TNFα, as measured by RIPK1 ubiquitination (FIG. 9G). […]

RIPK1 = RIPK1 activation (p-S166, ubiquitination in complex I) in TNFα-treated bEnd.3 cells; details: Nat1-KD bEnd.3 cells, sodium acetate 100 mM, flag-TNFα 100 ng/ml
Description: as §1
Mitochondria was stained with MitoTracker and imaged in live cells. […] For N-terminal acetylation, subtiligase reaction as described in Yi et al. Cell 146, 607-620 (2011) was used. Biotin was added into the free N-terminal residue. […] For lysine acetylation, we first of all adjusted the protein concentrations to equalize A20 input in cell lysates of ctrl and Nat1-KD groups. Anti-acetylated lysine antibody was used for IP and anti-A20 antibody was used for WB. […]
as §2

For CCOC(=O)[C@H]1O[C@@H]1C(=O)N[C@@H](CC(C)C)C(=O)NCCC(C)C [E64D], the “A20 protein levels in Nat1-KD cells” value (A20) was “rescued”.

With CC(C)C[C@@H](C=O)NC(=O)[C@H](CC(C)C)NC(=O)[C@H](CC(C)C)NC(=O)OCc1ccccc1 [MG132] (Cbz-Leu-Leu-Leu-aldehyde) the “protein expression of A20” value (A20; both Ctrl and Nat1-KD bEnd.3 cells, MG132 10 uM) was “reduced”.

NC1(c2ccc(-c3nc4ccn5c(=O)[nH]nc5c4cc3-c3ccccc3)cc2)CCC1 [MK-2206] was tested, and the “insulin-induced Nat1 mRNA up-regulation” value (Nat1 mRNA) was “negated”.

For CN1C(=O)NC(Cc2c[nH]c3c(Cl)cccc23)C1=O (centres unmarked) [Nec-1s], the “TNFα-induced cell death in Nat1-KD cells” value (bEnd.3 cells) was “rescued”.

In the case of CCN(CC)CCCC(C)Nc1ccnc2cc(Cl)ccc12 (centres unmarked) [chloroquine], the “A20 protein levels in Nat1-KD cells” value (A20) is reported as “rescued”.

CC(=O)[O-].[Na+] [sodium acetate] was tested, and the “acetyl-CoA in Nat1-KD cells” value [1] was “rescue”, the “TNFα-induced cell death in Nat1-KD cells” value (bEnd.3 cells) was “rescues” and the “A20 protein levels in Nat1-KD cells” value (A20) was “rescue”. The “hyperactivation of RIPK1 in response to TNFα, as measured by RIPK1 ubiquitination” value (RIPK1) was “rescue”.

With “insulin: exogenous insulin applied into the culture medium” the “Nat1 mRNA expression” value (Nat1 mRNA; different concentrations in culture medium, 18 h) was “increases”.

In the case of “oligomeric Aβ1-42: oligomeric amyloid beta 1-42”, the “insulin-induced Nat1 mRNA up-regulation” value (Nat1 mRNA) is reported as “blocked”.
